Measured values: patent US12377094B2, “Therapeutic compositions and methods for treating checkpoint inhibitor-resistant tumors using plinabulin-based combination therapies” (BeyondSpring Pharmaceuticals, Inc., priority 2021, dated 2025)

Assay: Dose-escalation Phase I study of nivolumab, ipilimumab and plinabulin: safety (DLT, RP2D, treatment-related AEs, irAEs)
Assay type: in vivo, human
Settings: with nivolumab 1 mg/kg and ipilimumab 3 mg/kg, IV day 1 of 21 day cycle; dose-level 2
From the text: In a dose-escalation Phase I study, patients with recurrent extensive-stage small cell lung cancer (SCLC) who had progressed on prior platinum-based chemotherapy were enrolled using a 3+3 design. The primary objective was to determine dose-limiting toxicities (DLT's) and recommended Phase 2 dose (RP2D). Patients were evaluable for DLT if they received at least two cycles of therapy; DLT period was defined as the first six weeks. Secondary endpoints were ORR, PFS and frequency of irAEs. Correlative analysis included inflammatory biomarkers: hsCRP, ESR, SAA and haptoglobin.
Patients received nivolumab (1 mg/kg), ipilimumab (3 mg/kg) and plinabulin (as per dose escalation schema) IV on day 1 of each 21 day cycle. After completion of 4 cycles, patients continued therapy with nivolumab (240 mg) and plinabulin every 2 weeks till progression or intolerable toxicity. Patients were evaluable for DLT if they received at least 2 cycles of therapy; DLT period was defined as the first 6 weeks from C1D1.

CC(C)(C)c1[nH]cnc1/C=c1\[nH]c(=O)/c(=C/c2ccccc2)[nH]c1=O [plinabulin, (3Z,6Z)-3-Benzylidene-6-{[5-(2-methyl-2-propanyl)-1H-imidazol-4-yl]methylene}-2,5-piperazinedione]
recommended Phase 2 dose (RP2D) of plinabulin: 30 mg/m2
